Literature values in patent US20220409829A1, “ANTIVIRAL THAT DESTROYS DNA AND/OR RNA OF VIRUSES AND VIROIDS” (priority 2021, published 2022).

Columns and labels:
[1] = within 10 minutes; inhalation; FIG. 4
[2] = FIG. 5
[3] = FIG. 5; remark: listed apart in the source

For `[N-]=[N+]=O` [nitrous oxide], which “equilibration (Fa/Fi)” value [1] is on record?
The value was “approximately 90%”.

What about the minimum alveolar concentration [2] of the same compound?
The minimum alveolar concentration was 105%.

What about the blood/gas partition coefficient [3] of the same compound?
Its blood/gas partition coefficient is 0.46.

What about the agranulocytosis (bone marrow; after 4 days of exposure) of the same compound?
The agranulocytosis was “apparent”.

And the “Megaloblastic changes in bone marrow” value (bone marrow; exposure to anesthetic concentrations for 24 hours)?
The value was “observed”.
